Test results: patent US20190038784A1, “TAU PET IMAGING LIGANDS” (Janssen Pharmaceutica NV, priority 2016, published 2019)

What was measured:
[1] = target: T1, extracted human tau (aggregated tau, PHF) (Homo sapiens, UniProt P10636); test: Competitive radioligand binding assay with [3H]-T808 on aggregated tau preps from human AD brain; settings: for Ki: mean of at least two measurements with SD, calculated from IC50, KD PHF 6.275 nM, 10 nM RL; for IC50: radiolabel displacement of [3H]-T808, 10 nM, read-out: pIC50, binding to extracted human tau (converted)
T1 construct: Tau Ki; other: mean of at least two measurements with SD; other: radiolabel displacement of [3H]-T808, 10 nM
Experimental: (§1) Enriched aggregated tau fractions were prepared according to a slightly modified version of the protocol described by Greenberg and Davies (Greenberg S G, Davies P. A preparation of Alzheimer paired helical filaments that display distinct tau proteins by polyacrylamide gel electrophoresis. Proc. Natl. Acad. Sci. 1990; 87: 5827-5831) using human AD brain tissue (occipital cortex with high tau fibril load). Briefly, frozen human AD brain samples (˜10 g) were homogenized with 10 vol of cold homogenization buffer (10 mM Tris, 800 mM NaCl, 1 mM EGTA, 10% sucrose, pH 7.4 containing PhosSTOP phosphatase and cOmplete EDTA-free protease inhibitor (Roche, Vilvoorde, Belgium)) on ice. After centrifugation at 27 000×g for 20 min at 4° C. the supernatant was recovered and 1% (w/v) N-lauroylsarcosine and 1% (v/v) 2-mercaptoethanol were added. The N-lauroylsarcosine/2-mercaptoethanol supernatant was incubated for 2 h at 37° C. while shaking on an orbital shaker. Subsequently, ultracentrifugation at 108 000×g for 1.5 h at room temperature enriched aggregated tau in the pellet. Supematant was removed and the pellet was carefully rinsed twice with a small amount of TBS (50 mM Tris, 150 mM NaCl, pH 7.4). Finally, the aggregated tau pellet was recovered in TBS and resuspended to ensure sample homogeneity. Small aliquots were stored at −80° C.
(§2) The competitive radioligand binding assays measure the binding of a radiolabeled reference ligand in the presence of a dose response concentration range of test compounds.
(§3) Briefly, aggregated tau preps were diluted to 100 μg protein/ml in PBS buffer with 5% ethanol. In a 96-well format, ^3H-T808 (specific activity; 32.97 Ci/mmol) was added at a final concentration of 10 nM to increasing amounts of test compound in the presence of 20 μg protein of aggregated tau prep. Nonspecific binding was defined as the number of counts remaining in the presence of 50 μM Thioflavin T (common beta sheet binder). After 2 h incubation at room temperature, the unbound ligand is removed by filtration of the binding mixtures over GF/B glass filters using a Filtermate 96 harvester instrument (Perkin Elmer, Zaventem, Belgium). The filters were washed three times with PBS buffer containing 20% ethanol. After overnight drying of the filter plate, Microscint O liquid (Perkin Elmer) was added and the amount of radiolabeled ligand bound to the fibrils is measured by liquid scintillation counting in a Topcount instrument (Packard Instrument Company, Connecticut, USA)
(§4) Values for half-maximal inhibitory concentration (IC50) were determined from displacement curves of at least two independent experiments using GraphPad Prism software (GraphPad Software, San Diego, Calif.).

[2] = test system: extracted human tau (aggregated tau, PHF); test: as above; settings: Aβ Ki versus Tau Ki
Experimental: as §1, §2, §3, §4

[3] = target: T2, extracted human amyloid-beta aggregates (Homo sapiens, UniProt P05067); test: Competitive radioligand binding assay with [3H]-AV-45 on amyloid plaque preps from human AD brain; settings: for Ki: calculated from IC50, KD Aβ 7.85 nM for 3H-AV45, 10 nM RL; for binding to extracted human amyloid-beta aggregates: up to 10 μM, radiolabel displacement of [3H]-AV-45
T2 construct: from tissue; host or cells: human AD brain, occipital cortex
Experimental: Enriched aggregated β-amyloid preps were prepared from frozen human AD brain samples (10 g—occipital cortex with high amyloid plaques load) that were homogenized with 7-fold vol of cold homogenization buffer (250 mM sucrose, 20 mM Tris base, 1 mM EDTA, 1 mM EGTA and PhosSTOP phosphatase and cOmplete EDTA-free protease inhibitor) on ice. After centrifugation at 27 000×g for 20 min at 4° C. cell debris was removed. Supematant containing amyloid plaques was aliquoted and stored at −80° C.
as §2, §4
To determine compound binding to aggregated β-amyloid a similar assay was put in place but with some minor modifications. Briefly, amyloid preps were diluted to 150 μg protein/ml in 50 mM Tris with 0.1% BSA and 5% ethanol. ^3H-AV-45 (florbetapir-specific activity; 45.95 Ci/mmol) was added at a final concentration of 10 nM to increasing amounts of test compound in the presence of 30 μg protein of amyloid plaques prep. Nonspecific binding was determined in the presence of 500 μM Thioflavin T. After 150 min incubation at room temperature, the binding mixtures were filtered over GF/B glass filters. The filters were washed three times with PBS buffer containing 20% ethanol. Subsequent steps were identical to those described for the aggregated tau preps.

[4] = MicroPET imaging, Wistar rats; format: in vivo; settings: baseline scan, whole brain, IV 50 MBq
Experimental: Dynamic 120 min microPET scans were performed on a Focus™ 220 microPET scanner (Concorde Microsystems, Konxville, Tenn., USA) on three female Wistar rats simultaneously, which were kept under gas anesthesia during the whole procedure (2.5% isoflurane in 02 at 1 L/min flow rate). The head of the animals was placed central, in the field of view, of the microPET scanner. Scans were acquired in list mode and acquisition data were Fourier rebinned in 24 time frames (4×15 s, 4×60 s, 5×180 s, 8×300 s, 3×600 s). Data, which were 3D maximum a posteriori (3D-MAP) reconstructed, were manually aligned with a rat brain [^18F]FDG template in Paxinos coordinates using an affine transformation, to allow predefined volumes of interest (VOIs) analysis. Time-activity curves (TACs) of the whole brain were generated using VOIs with PMOD software (v 3.2, PMOD Technologies Ltd., Zdtrich, Switzerland). Radioactivity concentration in the brain was expressed as standardized uptake value (SUV, calculated as (radioactivity in Bq in brain/mL)/(total injected dose (Bq)/body weight in g)) as a function of time after tracer injection. Scans were started immediately after IV injection of 50 MBq [^18F]Co. No. 1 or [^18F]T807 (n=3/tracer). […]

[5] = MicroPET imaging, rhesus monkey (experiment 1); format: in vivo, rhesus monkey (macaca mulatta); settings: baseline scan
Experimental: A dynamic 120-min microPET scan with [^18F]Co. No. 1 or [^18F]T807 was performed on a Focus™ 220 microPET scanner (Concorde Microsystems, Knoxville, Tenn., USA) on, respectively, a female rhesus monkey (9 year-old macaca mulatta, 5.3 kg) and a male rhesus monkey (6 year-old macaca mulatta, 7.6 kg), that was sedated with ketamine (Ketalar®) and xylazine (Rompun®) via intramuscular (IM) injection. During scanning the monkey received repeatedly an additional dose of ketamine/xylazine via IV injection. The O2 saturation in the blood, the breathing frequency and heartrate were monitored during the entire experiment. The head of the animal was placed central, in the field of view, of the microPET scanner. Scans were acquired in list mode and acquisition data were Fourier rebinned in 24 time frames (4×15 s, 4×60 s, 5×180 s, 8×300 s, 3×600 s). Data were reconstructed using a 3D maximum a posteriori (3D-MAP) iterative reconstruction. TACs of the whole brain, corpus callosum, cerebellum and entorhinal cortex were generated using VOIs with PMOD software. Radioactivity concentration in the brain is expressed as SUV as a function of time after tracer injection (FIGS. 5a and 5b). Scans were started immediately after IV injection of 185 MBq of [^18F]Co. No. 1 of [^18F]T807 via the vena saphena of the right leg. […]

[6] = MicroPET imaging, rhesus monkey (experiment 2); format: in vivo, rhesus monkey (Macaca mulatta); settings: baseline scan
Experimental: A dynamic 120-min μPET scan with [^18F]Co. No. 1 or [^18F]T807 was performed with a Focus 220 μPET scanner on a male rhesus monkey (6 y-old Macaca mulatta, 7.6 kg), that was sedated with ketamine (Ketalar®) and xylazine (Rompun®) via intramuscular (IM) injection. During scanning the monkey received repeatedly an additional dose of ketamine/xylazine via i.v. injection. O2 saturation in blood, breathing frequency and heartbeat frequency were monitored during the entire experiment. The head of the animal was placed central in the field of view of the μPET scanner. Scans were acquired in list mode and Fourier rebinned in 24 time frames (4×15 s, 4×60 s, 5×180 s, 8×300 s, 3×600 s). Data were reconstructed using a 3D maximum a posteriori (3D-MAP) iterative reconstruction. TACs of the whole brain were generated using VOIs with PMOD software. Radioactivity concentration in the brain is expressed as SUV as a function of time after tracer injection. Scans were started immediately after i.v. injection of 185 MBq of [^18F]Co. No. 1 or [^18F]T807 via the vena saphena of the right leg. Results of the 120-min baseline scan of [^18F]Co. No. 1 and [^18F]T807 are shown in FIGS. 7a and 7b, respectively. […] TACs of the baseline scan of [^18F]T807 in the brain show a slower initial brain uptake (SUV value of ˜1.3, time to peak uptake: 15 min) and wash-out (FIG. 8). […]

[7] = test system: neurofibrillary tangles (NFTs) in AD brain slices; test: Autoradiography blocking study of [18F]Co. No. 1 on human AD brain slices; format: binding; settings: 1 μM cold blocker, Braak stage V-VI slices
Experimental: Air-dried frozen, 20-μm-thick slices of an AD-patient (Braak stage V-VI) were incubated for 60 min with [^18F]Co. No. 1 (7.4 kBq/500 JpL per section) and subsequently washed with mixtures of phosphate buffered saline (PBS) and ethanol as described elsewhere (Xia C F, Arteaga J, Chen G, et al. [(18)F]T807, a novel tau positron emission tomography imaging agent for Alzheimer's disease. Alzheimers Dement. 2013, 1-11, doi: 10.1016/i.ialz.2012.11.008). To assess specificity of binding, slices were incubated with tracer in the presence of 1 μM of authentic T808 or […].
No. 1. After drying, slices were exposed to a phosphor storage screen (super-resolution screen, Perkin Elmer). Screens were read in a Cyclone Plus system (Perkin Elmer, Waltham, Mass., U.S.A.) and analyzed using Optiquant software. Results are expressed as digital light units per square mm (DLU/mm^2). Adjacent AD slices were immunostained with anti-tau (AT8) and anti-Aβ antibodies (AG8), to correlate with [^18F]Co. No. 1 binding. […] The binding pattern corresponds well with the Tau pathology as detected with AT8 IHC on adjacent slides (see FIG. 1). To assess the specificity of the tracer binding to neurofibrillary tangles (NFTs), blocking studies with authentic Co. No. 1 and T808 were performed. […] Blocking percentages were calculated as (DLU/mm^2 in the presence of […] blocker)/(DLU/mm^2 tracer only).

T2 sequence (P05067 672-713 limits assumed): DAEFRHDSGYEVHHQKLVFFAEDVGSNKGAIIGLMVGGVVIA
T1 sequence (P10636 623-695 limits assumed): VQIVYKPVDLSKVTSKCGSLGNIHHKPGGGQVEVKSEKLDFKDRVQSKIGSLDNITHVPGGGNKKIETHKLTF

SMILES	Ki [1]	IC50 [1]	Selectivity (ratio) [2]	Ki [3]	binding to extracted human amyloid-beta aggregates [3]	initial brain uptake, SUV value in the brain [4]	wash-out from brain [5]	initial brain uptake, SUV value ([5]; brain, IV 185 MBq)	time to peak uptake ([6]; brain)	initial brain uptake, SUV value ([6]; i.v. 185 MBq, male monkey)	inhibition of [18F]Co. No. 1 binding to AD brain slices [7]
Fc1ccc2nc(Nc3ccncc3)ccc2n1 [Co. No. 3]	11.3 ± 2.8 nM	25.1 nM	>380	> 4400 nM	no measurable binding	–	–	–	–	–	–
Fc1ccc(-c2ccc3c(c2)[nH]c2ccncc23)cn1 [[^18F]T807, 7-(6-fluoropyridin-3-yl)-5H-pyrido[4,3-b]indole]	–	–	–	–	–	~1.6	slower wash-out	~1.3	15 min	~1.3	–
FCCC1CCN(c2ccn3c(n2)nc2ccccc23)CC1 [T808, 2-[4-(2-fluoroethyl)-1-piperidinyl]-pyrimido[1,2-a]benzimidazole, reference compound]	–	–	–	–	–	–	–	–	–	–	98%
Cc1cnccc1Nc1ccc2nc(F)ccc2n1 [Co. No. 2]	13.5 ± 2.2 nM	31.6 nM	>325	> 4400 nM	no measurable binding	–	–	–	–	–	–
Cc1cc(Nc2ccc3nc(F)ccc3n2)ccn1 [Co. No. 1]	7.9 ± 2.5 nM	20 nM	>540	> 4400 nM	no measurable binding	–	–	–	–	–	99%
